Data on 20 molecules can be found in US20250289789A1, “REVERSIBLE LYSINE COVALENT MODIFIERS OF CDK2 AND USES THEREOF” (Terremoto Biosciences, Inc., priority 2023, published 2025).

Like-named read-outs stand apart in the source and are kept apart here.

Format in all cases: cell-based
For assay [1], the target named is T1, CDK4-NanoLuc fusion with CCND1 in 293T or 293 cells (Homo sapiens, UniProt P11802).
T1 construct: host or cells: 293T (ATCC CRL-3216) or 293 (ATCC CRL-1573)
Description: NanoBRET Target Engagement (TE) Intracellular Kinase Assay, CDK4/CCND1. Conditions: NanoBRET TE intracellular kinase assay, 2-hour incubation, read-out: NanoBRET-CDK4/D1 IC50. The procedure:
(§1) Inhibitory effects of compounds were measured in NanoBRET TE Intracellular Kinase Assay. […] Cells were co-transfected with 1 μg/mL of CDK-NanoLuc Fusion Vector (Promega; NV2701 for CDK1, NV2781 for CDK2, NV2811 for CDK4, NV2841 for CDK6) and 1 μg/mL of the corresponding Cyclin Expression Vector (Promega; NV2601 for CCNB1, NV2641 for CCNE1, NV2621 for CCND1, NV2631 for CCND3) using FuGENE HD Transfection Reagent (Promega; E2311). […] 20 uL/well of 3× Intracellular TE Nano-Glo Substrate/Inhibitor (Promega; N2162) were added to 384-well plates and incubated for 3 minutes at room temperature. NanoBRET signals (donor emission wavelength at 450 nm, acceptor emission wavelength at 610 nm) were measured using Envision plate reader (PerkinElmer). NanoBRET ratio was calculated by: BRET Ratio=raw signal for acceptor/raw signal for donor. Dose response curve normalized to DMSO control was plotted using four-parameter logistic model for IC50 calculation.

The target of assay [2] is T2, CDK2-NanoLuc fusion with CCNE1 in 293T or 293 cells (Homo sapiens, UniProt P24941).
T2 construct: host or cells: 293T (ATCC CRL-3216) or 293 (ATCC CRL-1573)
Description: NanoBRET Target Engagement (TE) Intracellular Kinase Assay, CDK2/CCNE1. Conditions: NanoBRET TE intracellular kinase assay, 2-hour incubation, read-out: NanoBRET-CDK2/E1 IC50. The procedure: as §1

In assay [3] the test system is Phospho-Rb Ser807/811 in OVCAR3 cells. Description: OVCAR3 Phospho-Rb Ser807/811 HTRF assay. Particulars: OVCAR3 cells, Phospho-Rb Ser807/811 HTRF, 1 hour incubation, read-out: pRb-OVCAR3 IC50. How it is done: Cells were trypsinized and resuspended in 1 mM hydroxyurea (Sigma; H8627), 90% RPMI and 10% fetal bovine serum. […] Dose response curve normalized to DMSO control was plotted using four-parameter logistic model for IC50 calculation.
For orientation: Time-resolved FRET reads energy transfer from a long-lived donor to a nearby acceptor.

T1 sequence (P11802 whole entry, the tested form may be a part): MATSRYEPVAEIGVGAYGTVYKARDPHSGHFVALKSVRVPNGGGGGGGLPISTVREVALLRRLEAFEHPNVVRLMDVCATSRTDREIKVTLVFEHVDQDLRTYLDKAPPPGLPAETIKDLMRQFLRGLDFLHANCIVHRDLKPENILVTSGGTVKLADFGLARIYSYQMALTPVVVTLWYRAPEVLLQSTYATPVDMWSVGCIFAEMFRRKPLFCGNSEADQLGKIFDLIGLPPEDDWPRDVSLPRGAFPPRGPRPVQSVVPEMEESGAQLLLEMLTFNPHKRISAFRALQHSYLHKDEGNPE
T1 sequence (P24385 whole entry partner, the tested form may be a part): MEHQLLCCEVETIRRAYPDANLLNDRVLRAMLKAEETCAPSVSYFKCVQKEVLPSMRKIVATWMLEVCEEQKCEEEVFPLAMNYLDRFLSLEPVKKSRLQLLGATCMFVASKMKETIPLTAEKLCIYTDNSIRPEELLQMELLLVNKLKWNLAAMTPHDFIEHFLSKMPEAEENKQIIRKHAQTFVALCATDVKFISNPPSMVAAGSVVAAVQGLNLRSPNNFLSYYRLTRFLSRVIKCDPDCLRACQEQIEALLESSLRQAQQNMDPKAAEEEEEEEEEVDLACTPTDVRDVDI

Consider `COc1cc(O)c(C=O)c2c1CC(C(=O)Nc1cc([C@H]3CC[C@@H](OC(=O)N4CCCN4C)C3)[nH]n1)C2` (single isomer, unassigned) [Compound 262, (1R,3S)-3-(3-((*)-4-formyl-5-hydroxy-7-methoxy-2,3-dihydro-1H-indene-2-carboxamido)-1H-pyrazol-5-yl)cyclopentyl 2-methylpyrazolidine-1-carboxylate], for which the IC50 was determined as 5080 nM in assay [1], 4.42 nM in assay [2] and 51.8 nM in assay [3].
In the same order, the values of `COc1cc(O)c(C=O)c2c1CC(C(=O)Nc1cc([C@H]3CC[C@@H](OC(=O)N4CCCN4C)C3)[nH]n1)C2` (single isomer, unassigned) [Compound 263, (1R,3S)-3-(3-((*)-4-formyl-5-hydroxy-7-methoxy-2,3-dihydro-1H-indene-2-carboxamido)-1H-pyrazol-5-yl)cyclopentyl 2-methylpyrazolidine-1-carboxylate] are 735 nM, 63.3 nM and 7740 nM.
Regarding `COc1cc(O)c(C=O)c2c1CC(C(=O)Nc1cc([C@H]3CC[C@@H](OC(=O)NN(C)CC(F)(F)F)C3)[nH]n1)C2` (single isomer, unassigned) [Compound 264, (1R,3S)-3-(3-((*)-4-formyl-5-hydroxy-7-methoxy-2,3-dihydro-1H-indene-2-carboxamido)-1H-pyrazol-5-yl)cyclopentyl 2-methyl-2-(2,2,2-trifluoroethyl)hydrazine-1-carboxylate], the figures for the IC50 in assay [1], in assay [2] and in assay [3] were 512 nM, 5.95 nM and 13.6 nM, respectively.
`COc1cc(O)c(C=O)c2c1CC(C(=O)Nc1cc([C@H]3CC[C@@H](OC(=O)NN(C)CC(F)(F)F)C3)[nH]n1)C2` (single isomer, unassigned) [Compound 265, (1R,3S)-3-(3-((*)-4-formyl-5-hydroxy-7-methoxy-2,3-dihydro-1H-indene-2-carboxamido)-1H-pyrazol-5-yl)cyclopentyl 2-methyl-2-(2,2,2-trifluoroethyl)hydrazine-1-carboxylate]: the IC50 in assay [1] was found to be 132 nM; in assay [2], 15.5 nM; in assay [3], 567 nM.
For the molecule `COc1cc(O)c(C=O)c2c1CC(C(=O)Nc1cc([C@H]3CC[C@@H](OC(=O)N4CCCCN4C)C3)[nH]n1)C2` (single isomer, unassigned) [Compound 266, (1R,3S)-3-(3-((*)-4-formyl-5-hydroxy-7-methoxy-2,3-dihydro-1H-indene-2-carboxamido)-1H-pyrazol-5-yl)cyclopentyl 2-methyltetrahydropyridazine-1(2H)-carboxylate], the IC50 in assay [1] amounted to 1980 nM; in assay [2], 1.99 nM; in assay [3], 123 nM.
For `COc1cc(O)c(C=O)c2c1CC(C(=O)Nc1cc([C@H]3CC[C@@H](OC(=O)N4CCCCN4C)C3)[nH]n1)C2` (single isomer, unassigned) [Compound 267, (1R,3S)-3-(3-((*)-4-formyl-5-hydroxy-7-methoxy-2,3-dihydro-1H-indene-2-carboxamido)-1H-pyrazol-5-yl)cyclopentyl 2-methyltetrahydropyridazine-1(2H)-carboxylate], the IC50 in assay [1] was found to be 266 nM; in assay [2], 21.8 nM; in assay [3], 5230 nM.
In the same order, the values of `COc1cc(O)c(C=O)c2c1CC(C(=O)Nc1cc([C@H]3CC[C@@H](OC(=O)NN(C)C)C3)n[nH]1)C2` (single isomer, unassigned) [Compound 268, (1R,3S)-3-(3-((*)-4-formyl-5-hydroxy-7-methoxy-2,3-dihydro-1H-indene-2-carboxamido)-1H-pyrazol-5-yl)cyclopentyl 2,2-dimethylhydrazine-1-carboxylate] are 4940 nM, 10.8 nM and 85.9 nM.
`COc1cc(O)c(C=O)c2c1CC(C(=O)Nc1cc([C@H]3CC[C@@H](OC(=O)NN(C)C)C3)n[nH]1)C2` (single isomer, unassigned) [Compound 269, (1R,3S)-3-(3-((*)-4-formyl-5-hydroxy-7-methoxy-2,3-dihydro-1H-indene-2-carboxamido)-1H-pyrazol-5-yl)cyclopentyl 2,2-dimethylhydrazine-1-carboxylate]: the IC50 worked out at 459 nM in assay [1], 67.7 nM in assay [2] and 2230 nM in assay [3].
The like results for `COc1cc(O)c(C=O)c2c1CC(C(=O)Nc1cc([C@H]3C[C@@H](OC(=O)N(C)N(C)C)C3)n[nH]1)C2` (single isomer, unassigned) [Compound 270] were, in that order, more than 10000 nM, 6.25 nM and 48.6 nM.
Take `COc1cc(O)c(C=O)c2c1CC(C(=O)Nc1cc([C@H]3C[C@@H](OC(=O)N(C)N(C)C)C3)n[nH]1)C2` (single isomer, unassigned) [Compound 271]: the figures for the IC50 in assay [1], in assay [2] and in assay [3] were 3250 nM, 240 nM and more than 10000 nM, respectively.
Regarding `COc1cc(O)c(C=O)c(OCC(=O)Nc2cc([C@H]3CC[C@@H](OC(=O)NC4(C)CC4(F)F)C3)[nH]n2)c1` (single isomer, unassigned) [Compound 280, (1R,3S)-3-(3-(2-(2-formyl-3-hydroxy-5-methoxyphenoxy)acetamido)-1H-pyrazol-5-yl)cyclopentyl ((*)-2,2-difluoro-1-methylcyclopropyl)carbamate], the IC50 in assay [1] came out at 576 nM; in assay [2], 3.88 nM; in assay [3] (Homo sapiens, OVCAR-3, 1 h) it was 17.4 nM.
`COc1cc(O)c(C=O)c(OCC(=O)Nc2cc([C@H]3CC[C@@H](OC(=O)NC4(C)CC4(F)F)C3)[nH]n2)c1` (single isomer, unassigned) [Compound 281, (1R,3S)-3-(3-(2-(2-formyl-3-hydroxy-5-methoxyphenoxy)acetamido)-1H-pyrazol-5-yl)cyclopentyl ((*)-2,2-difluoro-1-methylcyclopropyl)carbamate]: the IC50 in assay [1] was determined as 1200 nM; in assay [2] it was 4.85 nM; in assay [3] it was 27.3 nM.
Turning to `COc1cc(O)c(C=O)c2c1CC(C(=O)Nc1cc([C@H]3C[C@@H](OC(=O)NC(C)C)C3)[nH]n1)C2` (single isomer, unassigned) [Compound 282, (1R,3s)-3-(3-((*)-4-formyl-5-hydroxy-7-methoxy-2,3-dihydro-1H-indene-2-carboxamido)-1H-pyrazol-5-yl)cyclobutyl isopropylcarbamate], the IC50 in assay [1] worked out at 3350 nM; in assay [2], 5.3 nM; in assay [3] (Homo sapiens, OVCAR-3, 1 h), 20.4 nM.
On to `COc1cc(O)c(C=O)c2c1CC(C(=O)Nc1cc([C@H]3CC[C@@H](OC(=O)NC(C)(C)C)C3)[nH]n1)C2` (single isomer, unassigned) [Compound 283, (1R,3S)-3-(3-((*)-4-formyl-5-hydroxy-7-methoxy-2,3-dihydro-1H-indene-2-carboxamido)-1H-pyrazol-5-yl)cyclopentyl tert-butylcarbamate], for which the IC50 in assay [1] was found to be 236 nM; in assay [2], 2.01 nM; in assay [3] (Homo sapiens, OVCAR-3, 1 h), 12.6 nM.
The like results for `COc1cc(O)c(C=O)c2c1CC(C(=O)Nc1cc([C@H]3CC[C@@H](OC(=O)N(C)N(C)C)C3)n[nH]1)C2` (single isomer, unassigned) [Compound 284, (1R,3S)-3-(3-((*)-4-formyl-5-hydroxy-7-methoxy-2,3-dihydro-1H-indene-2-carboxamido)-1H-pyrazol-5-yl)cyclopentyl 1,2,2-trimethylhydrazine-1-carboxylate] were, in that order, 2850 nM, 1.85 nM and 29.2 nM.
For the molecule `COc1cc(O)c(C=O)c(OCC(=O)Nc2cc([C@H]3CC[C@@H](OC(=O)N4CC[C@H]4C#N)C3)[nH]n2)c1` (stereo in doubt) [Compound 126], the IC50 in assay [1] was 7310 nM; in assay [2], 9.62 nM; in assay [3] (Homo sapiens, OVCAR-3, 1 h), 75.7 nM.
The like results for `CCOc1cc(O)c(C=O)c(OCC(=O)Nc2cc([C@H]3CC[C@@H](OC(=O)NC4(C)CC4)C3)[nH]n2)c1` [Compound 115] were, in that order, 1240 nM, 1.94 nM and 16.3 nM.
As for `COc1cc(O)c(C=O)c(OCC(=O)Nc2cc([C@H]3CC[C@@H](OC(=O)NCCOC(F)F)C3)n[nH]2)c1` [Compound 116], the IC50 was found to be 4360 nM in assay [1]; 4.5 nM in assay [2]; 32.3 nM in assay [3] (Homo sapiens, OVCAR-3, 1 h).
In the case of `COc1cc(O)c(C=O)c(OCC(=O)Nc2cc([C@H]3CC[C@@H](OC(=O)NCCOC(F)(F)F)C3)n[nH]2)c1` [Compound 117], the IC50 in assay [1] was determined as 8090 nM; in assay [2], 2.19 nM; in assay [3] (Homo sapiens, OVCAR-3, 1 h) it was 22 nM.
The like results for `COc1cc(O)c(C=O)c(OCC(=O)Nc2cc([C@H]3CC[C@@H](OC(=O)N4C[C@H]5C[C@@H]4CS5(=O)=O)C3)n[nH]2)c1` [Compound 118] were, in that order, 6480 nM, 55.4 nM and 101 nM.
